Laboratory results: publication PMC9305623, “Next generation GLP-1/GIP/glucagon triple agonists normalize body weight in obese mice” (Molecular Metabolism, 2022)

Tests used:
hGLP-1 Receptor = target: T1, hGLP-1 Receptor (Homo sapiens, UniProt P43220); assay: Receptor activation: cAMP production by CRE-luciferase reporter in stably transfected BHK cells; assay type: cell-based; conditions: compared to the native ligand for the receptor
T1 construct: expressed in transfected cells; host or cells: baby hamster kidney (BHK) cells, stably transfected, with CRE-firefly luciferase reporter
Protocol: (§1) Cyclic AMP (cAMP) production was assessed as a proxy for receptor activation using stably transfected baby hamster kidney (BHK) cell lines expressing the DNA for one individual receptor (GLP-1R, GIPR, GcgR; human- or mouse-specific sequence) and the DNA for the firefly luciferase reporter gene linked to the cAMP response element (CRE). The cells were kept in continuous culture at 37 °C and 5% CO2 in Dulbecco's Modified Eagle Medium (DMEM) supplemented with 10% heat-inactivated fetal bovine serum (HI-FBS), 300 μg/mL hygromycin, and 500 μg/mL G418; for cell lines expressing GIPR, the G418 concentration was lowered to 400 μg/mL. Cells were plated in a 96-well poly-D-lysine-coated plate at 5,000 cells per well in growth media and incubated overnight at 37 °C with 5% CO2. After the overnight incubation, the media was removed, the plate was washed once in Dulbecco's phosphase-buffered saline (DPBS), and 50 μL of assay buffer (DMEM without phenol red, 10 mM HEPES, 1x Glutamax, 1% ovalbumin, 0.1% Pluronic F-68) was added to each well. […] Aliquots of the dilution curves were added to the cell plate in a volume of 50 μL per well resulting in final assay concentrations ranging from 1 × 10^−14 to 1 × 10^−7 M. The assay plate was incubated for 3 h at 37 °C and 5% CO2. After the incubation, the assay plate was washed once with DPBS. A 100 μL aliquot of DPBS was added to each well followed by 100 μL of steadylite plus reagent (PerkinElmer). The assay plate was covered to protect reagent from light, shaken at 250 rpm at room temperature for 30 min, and read in a microtiter plate reader. EC50 values were calculated using Prism software (GraphPad) with the nonlinear regression log(agonist) vs. response. A minimum of two replicates were measured for each sample.

hGIP Receptor = target: T2, hGIP Receptor (Homo sapiens, UniProt P48546); assay: as above; assay type: cell-based; conditions: compared to the native ligand for the receptor
T2 construct: expressed in transfected cells; host or cells: baby hamster kidney (BHK) cells, stably transfected, with CRE-firefly luciferase reporter
T2 sequence (P48546 22-466): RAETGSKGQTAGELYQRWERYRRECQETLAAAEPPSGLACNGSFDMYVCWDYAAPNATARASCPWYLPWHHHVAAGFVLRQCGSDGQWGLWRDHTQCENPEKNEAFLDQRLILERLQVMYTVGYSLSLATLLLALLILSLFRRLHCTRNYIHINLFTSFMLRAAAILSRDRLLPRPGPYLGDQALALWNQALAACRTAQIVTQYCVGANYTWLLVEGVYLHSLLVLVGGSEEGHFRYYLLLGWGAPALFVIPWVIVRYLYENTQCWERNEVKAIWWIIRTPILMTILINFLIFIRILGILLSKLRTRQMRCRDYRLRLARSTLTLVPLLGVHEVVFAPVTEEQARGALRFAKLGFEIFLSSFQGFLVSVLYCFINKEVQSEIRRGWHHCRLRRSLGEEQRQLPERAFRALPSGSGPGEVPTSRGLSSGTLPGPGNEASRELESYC
Protocol: as §1

hGcg Receptor = target: T3, hGcg Receptor (Homo sapiens, UniProt P47871); assay: as above; assay type: cell-based; conditions: compared to the native ligand for the receptor
T3 construct: expressed in transfected cells; host or cells: baby hamster kidney (BHK) cells, stably transfected, with CRE-firefly luciferase reporter
Protocol: as §1

in vivo = assay: in vivo; parameters: species or system Göttingen minipigs; conditions: female, Göttingen, minipig, iv, 2 nmol/kg
Protocol: Studies were conducted in accordance with the Protection of Animals Act, the Act on Experiments on Animals, and the Standard Operating Procedures for Experiments on Animals at Novo Nordisk A/S. The experiments were performed under the supervision and approval of the Danish Government Animal Experiments Inspectorate and the Novo Nordisk Ethical Review Counsel. Female Göttingen minipigs (Ellegaard Göttingen Minipigs A/S), 7–14 months old and weighing 16–35 kg, were housed individually and fed once daily with a restricted SDS minipig diet (Special Diets Services). At least one week before the study, two permanent central venous catheters were implanted in the caudal vena cava of each animal. The animals were fasted for approximately 18 h before dosing and 4 h after dosing but had ad libitum access to water during the whole period. Test compounds dissolved to a concentration of 20–40 nmol/mL in a vehicle (pH 7.4) containing 0.025% polysorbate-20, 10 mM sodium phosphate, and 250 mM glycerol were administered via an intravenous injection through one catheter at a dose of 2 nmol/kg. Blood samples were collected in 8 mM aqueous EDTA for up to 14 days post dosing, preferably through the other catheter, then centrifuged at 4 °C and ∼2000g for 10 min. Plasma was isolated and immediately frozen until RP-HPLC/MS analysis. Individual plasma concentration–time profiles were analysed by a non-compartmental model in Phoenix WinNonLin software (Pharsight Inc.), and the resulting terminal half-lives were determined at the harmonic mean.

T3 sequence (P47871 26-477): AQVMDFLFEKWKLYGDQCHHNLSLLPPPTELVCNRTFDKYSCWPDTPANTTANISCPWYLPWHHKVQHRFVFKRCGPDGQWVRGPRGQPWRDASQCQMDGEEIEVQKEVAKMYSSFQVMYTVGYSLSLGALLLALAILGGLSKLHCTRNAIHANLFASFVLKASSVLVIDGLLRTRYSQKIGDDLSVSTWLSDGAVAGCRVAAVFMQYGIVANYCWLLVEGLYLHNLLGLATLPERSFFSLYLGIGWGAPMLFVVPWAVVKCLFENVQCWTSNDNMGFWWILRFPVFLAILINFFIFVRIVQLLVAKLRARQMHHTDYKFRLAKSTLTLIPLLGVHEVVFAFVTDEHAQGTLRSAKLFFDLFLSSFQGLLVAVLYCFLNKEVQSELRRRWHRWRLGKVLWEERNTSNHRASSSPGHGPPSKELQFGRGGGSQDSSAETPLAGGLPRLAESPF
T1 sequence (P43220 24-463): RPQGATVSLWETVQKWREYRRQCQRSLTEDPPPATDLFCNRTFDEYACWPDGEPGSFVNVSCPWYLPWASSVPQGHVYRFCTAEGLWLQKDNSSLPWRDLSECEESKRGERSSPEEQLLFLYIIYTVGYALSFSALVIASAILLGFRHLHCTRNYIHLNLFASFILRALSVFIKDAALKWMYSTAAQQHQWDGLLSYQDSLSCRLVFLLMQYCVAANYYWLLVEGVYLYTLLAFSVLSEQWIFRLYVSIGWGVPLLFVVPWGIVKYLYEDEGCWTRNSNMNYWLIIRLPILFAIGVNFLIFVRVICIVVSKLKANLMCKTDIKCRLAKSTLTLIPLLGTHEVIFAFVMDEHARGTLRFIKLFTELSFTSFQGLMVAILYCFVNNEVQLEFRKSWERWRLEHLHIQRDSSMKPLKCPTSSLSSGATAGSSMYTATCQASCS

CC[C@H](C)[C@H](NC(=O)[C@H](CO)NC(=O)[C@H](Cc1ccc(O)cc1)NC(=O)[C@H](CC(=O)O)NC(=O)[C@H](CO)NC(=O)[C@@H](NC(=O)[C@H](Cc1ccccc1)NC(=O)[C@@H](NC(=O)CNC(=O)[C@H](CCC(N)=O)NC(=O)C(C)(C)NC(=O)[C@@H](N)Cc1ccc(O)cc1)[C@@H](C)O)[C@@H](C)O)C(=O)N[C@@H](Cc1ccc(O)cc1)C(=O)N[C@@H](CC(C)C)C(=O)N[C@@H](CC(=O)O)C(=O)N[C@@H](CCCCNC(=O)COCCOCCNC(=O)COCCOCCNC(=O)CC[C@H](NC(=O)CCCCCCCCCCCCCCCCC(=O)O)C(=O)O)C(=O)N[C@@H](CCC(N)=O)C(=O)N[C@@H](C)C(=O)N[C@@H](C)C(=O)NC(C)(C)C(=O)N[C@@H](CCC(=O)O)C(=O)N[C@@H](Cc1ccccc1)C(=O)N[C@H](C(=O)N[C@@H](CC(N)=O)C(=O)N[C@@H](Cc1c[nH]c2ccccc12)C(=O)N[C@@H](CC(C)C)C(=O)N[C@@H](CC(C)C)C(=O)N[C@@H](C)C(=O)NCC(=O)NCC(=O)N1CCC[C@H]1C(=O)N[C@@H](CO)C(=O)N[C@@H](CO)C(=O)NCC(=O)N[C@@H](C)C(=O)N1CCC[C@H]1C(=O)N1CCC[C@H]1C(=O)N1CCC[C@H]1C(=O)N[C@@H](CO)C(N)=O)C(C)C [Compound 7]
hGLP-1 Receptor Relative Potency % (hGLP-1 Receptor): 93%
hGIP Receptor Relative Potency % (hGIP Receptor): 38%
hGcg Receptor Relative Potency % (hGcg Receptor): 12%
Vd (in vivo): 0.121 L/kg
clearance (in vivo): 1.4 mL/h/kg

CC[C@H](C)[C@H](NC(=O)[C@H](CO)NC(=O)[C@H](Cc1ccc(O)cc1)NC(=O)[C@H](CC(=O)O)NC(=O)[C@H](CO)NC(=O)[C@@H](NC(=O)[C@H](Cc1ccccc1)NC(=O)[C@@H](NC(=O)CNC(=O)[C@H](CCC(N)=O)NC(=O)C(C)(C)NC(=O)[C@@H](N)Cc1ccc(O)cc1)[C@@H](C)O)[C@@H](C)O)C(=O)N[C@@H](Cc1ccc(O)cc1)C(=O)N[C@@H](CC(C)C)C(=O)N[C@@H](CC(=O)O)C(=O)N[C@@H](CCCCNC(=O)COCCOCCNC(=O)COCCOCCNC(=O)CC[C@H](NC(=O)CCCCCCCCCCCCCCCCCCC(=O)O)C(=O)O)C(=O)N[C@@H](CCC(N)=O)C(=O)N[C@@H](C)C(=O)N[C@@H](C)C(=O)NC(C)(C)C(=O)N[C@@H](CCC(=O)O)C(=O)N[C@@H](Cc1ccccc1)C(=O)N[C@H](C(=O)N[C@@H](CC(N)=O)C(=O)N[C@@H](Cc1c[nH]c2ccccc12)C(=O)N[C@@H](CC(C)C)C(=O)N[C@@H](CC(C)C)C(=O)N[C@@H](C)C(=O)NCC(=O)NCC(=O)N1CCC[C@H]1C(=O)N[C@@H](CO)C(=O)N[C@@H](CO)C(=O)NCC(=O)N[C@@H](C)C(=O)N1CCC[C@H]1C(=O)N1CCC[C@H]1C(=O)N1CCC[C@H]1C(=O)N[C@@H](CO)C(N)=O)C(C)C [Compound 8]
hGLP-1 Receptor Relative Potency % (hGLP-1 Receptor): 101%
hGIP Receptor Relative Potency % (hGIP Receptor): 39%
hGcg Receptor Relative Potency % (hGcg Receptor): 6%
Vd (in vivo): 0.154 L/kg
clearance (in vivo): 1.2 mL/h/kg
